Assay results as given in patent US20250114436A1, “DYNAMIC-COVALENT HYDROGELS WITH GLUCOSE-SPECIFIC AND GLUCOSE-RESPONSIVE DIBORONATE CROSSLINKING” (UNIVERSITY OF NOTRE DAME DU LAC, priority 2022, published 2025).

Legend:
[1] = Acid-base titration for pKa determination; assay type: physicochemical; settings: small molecule
Experimental: A 0.01 M stock solution of the PBA of interest was prepared by dissolving 0.2 mmol of each PBA in 20 mL DI water. The solution was then titrated with 0.005 M NaOH solution under constant stirring with pH monitoring.
Previously reported diboronate glucose sensors include architectures of two phenylboronic acids attached to an aryl core via charged ammonium linkers. In a variation on this approach, the DiPBA motif explored here has introduced adjacent charge via pyridine-based phenylboronic acid structures (FIG. 1B). Besides conserving adjacent positive charge, the topology of this novel design was also intended to afford a more rigid pocket for simultaneous glucose binding by both boronates (FIG. 2B). Details for the synthesis and molecular characterization of this novel DiPBA group, along with all other synthetic small molecules and macromers, are reported in the Online Supporting Information. As a control for this glucose-binding motif, a single pyridine-PBA (PyPBA) was also synthesized. DiPBA and PyPBA motifs were compared in this work to a fluorine-substituted PBA motif (FPBA) that has been routinely reported in glucose-responsive materials and therapeutic constructs.

[2] = Isothermal titration calorimetry (ITC), glucose binding; settings: for Keq for binding to glucose: 298 K, pH 7.4 PBS
Experimental: (§1) The binding affinities (Keq) between different small molecule PBAs and model analytes (FIG. 2) were measured through isothermal titration calorimetry (ITC). All titration experiments were performed at 298 K on a PEAQ-ITC calorimeter (MicroCal, Inc.) in degassed pH 7.4 PBS buffer, using a 38 μL syringe and 200 μL cells and consisting of 19 injections. The measurements were performed by titrating glucose, fructose, sodium lactate, or Diolsm from the syringe into a solution of small molecule variants of DiPBAsm, PyPBAsm, or FPBAsm loaded in the cell. In all titration experiments, the cell concentration was 1 mM, while the analyte concentrations in the syringe were varied according to experimental optimization. All raw data were corrected by subtraction of a dilution measurement of the titrated analytes into buffer and were then analyzed and graphed using the integrated public-domain software packages of NIPIC, SEDPHAT, and GUSSI according to a published protocol. See Brautigam et al., Nat. Protoc. 11(5): 882-894 (2016).
(§2) To first quantify the affinities of binding for these different PBA motifs to glucose, related analytes, and model diols, a set of small molecules (FIG. 2) were synthesized for isothermal titration calorimetry (ITC) studies. […] By comparison, the commonly used FPBA motif had Keq for glucose binding of only 8.6 M^−1. […] Accordingly, concerns over low-affinity glucose-binding and poor glucose selectivity of traditional PBAs are supported by these ITC data, with both issues seemingly overcome using DiPBA chemistry. […] Finally, to explore the likely outcomes of using each of these PBA motifs in the context of dynamic-covalent networks a model diol (GdL-Diol) was prepared from reaction of glucono-δ-lactone (GdL) with benzylamine. The Keq of binding for each PBA motif to this model diol were nearly identical (˜5×10^3 M^−1); this finding confirms similar 1:1 binding stoichiometry between all three PBA chemistries studied here and the GdL-derived diol chemistry commonly used in preparing dynamic-covalent PBA-diol networks.

[3] = Isothermal titration calorimetry (ITC), fructose binding
Experimental: as §1, §2

[4] = Isothermal titration calorimetry (ITC), lactate binding
Experimental: as §1, §2

[5] = test system: streptozotocin (STZ)-induced diabetic mice; assay: Blood glucose control in vivo with glucose tolerance tests; design: species or system male C57BL6/J mice; settings: free insulin 4 IU/kg
Experimental: To evaluate the performance hydrogels for blood glucose control, male C57BL6/J mice (8 weeks old, ˜25 g/mouse; Jackson Laboratory) were induced to be insulin deficient using streptozotocin (STZ). Mice were fasted for 4 h, following which a single intraperitoneal (i.p.) injection of STZ at a dose of 150 mg/kg was administered. Following an additional 30 min fast, food was returned. Seven days following STZ treatment, insulin-deficient diabetes was verified using hand-held blood glucose meters (CVS brand) with unfasted blood glucose (BG) levels ensured to be above 600 mg/dL for study inclusion. Mice were then fasted for 12 h, and those with BG >550 mg/dL were randomly divided into 4 groups (n=5-6/group). […] BG level were continuously monitored for 3 h after treatment. […] BG were subsequently monitored for 3 h. […] Areas under the curve (AUC) were calculated using the trapezoidal rule and statistical analyses were performed to compare DiPBA and FPBA treatment groups using GraphPad Prism v9.0, with significance obtained using a Student's t-test. […] Glucose levels were monitored over time using handheld glucometers (FIG. 11B). […]

Row | Compound | pKa1 [1] | pKa2 [1] | glucose affinity relative to a traditional PBA motif (times higher) [2] [times] | Keq for binding to glucose [2] [M⁻¹] | fructose binding compared to FPBA / traditional PBA [3] | Keq for glucose relative to that for fructose (times higher) ([3]; pH 7.4 PBS) [times] | lactate binding compared to FPBA / traditional PBA [4] | Keq for glucose relative to that for lactate (times higher) ([4]; pH 7.4 PBS) [times] | pKa ([1]; DI water titrated with 0.005 M NaOH) | blood glucose response to first i.p. glucose tolerance test ([5]; GTT 1.25 g/kg glucose at 180 min) | time to blood glucose nadir ([5]; s.c.) [h]
1 | COC(=O)c1cc(C[n+]2cccc(B(O)O)c2)ccc1C[n+]1cccc(B(O)O)c1 [DiPBA] | 4.53 | 7.45 | 150 | 1295 | reduced | 1.7 | reduced | 29 | – | – | –
2 | COC(=O)c1cccc(C[n+]2cccc(B(O)O)c2)c1 [PyPBA] | – | – | – | 164.7 | reduced | – | reduced | – | 4.41 | – | –
3 | insulin: Recombinant Human Insulin, free insulin control, 4 IU/kg s.c. | – | – | – | – | – | – | – | – | – | dramatically increased blood glucose without any subsequent correction | ~1
